Source: patent publication US7977355B2, “N-(2-hydroxyethyl)-N-methyl-4-(quinolin-8-yl(1-(thiazol-4-ylmethyl)piperidin-4-ylidene)methyl” (Astrazeneca AB, priority 2006, dated 2011)

Assays:
[1] = Thermodynamic solubility; assay type: physicochemical; details: aqueous buffer, thermodynamic from solid, 25° C., 100 mM phosphate buffer at pH 7.4
Source text: An aliqout of the saturated solution was then taken and its concentration measured by liquid chromatography/tandem mass spectrometry (LC/MS/MS). LC/MS/MS experimental conditions and instrumental parameters are described in detail in the LC/MS/MS section.

[2] = Log D (shake-flask); assay type: physicochemical; details: octanol/buffer
Procedure: The determination of log D was based on the shake-flask principle. The compound(s) of the present invention was slurried in an octanol-saturated buffer solution and sonicated to promote dissolution. The solution was filtered to remove any insoluble. After an initial sample was taken, the solution volume is adjusted to 10 ml, and a known volume of buffer-saturated octanol is added. The two-phase solution is mixed, then separated by centrifugation. A second sample from the bottom layer (aqueous layer) was then taken. Both samples, which represented the solution concentrations of the compound before and after addition of octanol, were determined by LC/MS/MS. The determined concentrations were used to calculated the log D value.

SMILES: CN(CCO)C(=O)c1ccc(C(=C2CCN(Cc3cscn3)CC2)c2cccc3cccnc23)cc1 [compound of the invention, N-(2-hydroxyethyl)-N-methyl-4-(quinolin-8-yl(1-(thiazol-4-ylmethyl)piperidin-4-ylidene)methyl)benzamide]
- solubility at 24 h [1]: > 500 µM
- logD [2]: 1.6
